Several values for one entry are separate records, joined by “and”; a condition that tells them apart may be missing. Identical values can stand only once.
Tests used:
[1] = test system: P. falciparum TM91C235 (Thailand, multidrug-resistant (MDR) strain); assay: Malaria SYBR Green Fluorescence Assay, TM91C235 strain; type: cell-based; settings: Plasmodium falciparum, read-out: In Vitro Antimalarial Activity (P. falciparum, IC50, nM) C235
P. berghei (ANKA) = assay: Modified Thompson test, P. berghei mouse efficacy; type: in vivo, Plasmodium berghei; settings: for Mean Survival Time (MST, Days) / Mice Alive on Day 31 / Mice Dead/Day Died: infected mice, 160 mg/kg/day p.o., days 3–5 postinfection; for Parasitemia D24: day 24
Protocol: In a separate host toxicity study, benzothiophene 25 was subjected to in vivo toxicity evaluation. […]
The P. berghei (ANKA) mouse efficacy tests were conducted using a modified version of the Thompson test. Groups of five mice were inoculated intraperitoneally with erythrocytes infected with P. berghei on day 0. Drugs were suspended in 0.5% hydroxyethylcellulose-0.1% Tween 80 and administered orally once a day beginning on day 3 post infection. […] Cure was defined as survival (with no parasitemia) until day 31 post-treatment. Parasitemia was determined by thin-blood Giemsa-stained smears prepared from mice tail blood of each animal on days 0, 3, 6, 10, 13, 17, 20, 24, 27, and 31 (postinfection). The slides were examined under a light microscope.

[2] = test system: P. falciparum D6 (CQ susceptible (CQS) strain); assay: Malaria SYBR Green Fluorescence Assay, D6 strain; type: cell-based; settings: Plasmodium falciparum; CQ susceptible African D6 clone; read-out: In Vitro Antimalarial Activity (P. falciparum, IC50, nM) D6
[3] = test system: P. falciparum W2 (CQ resistant (CQR) strain); assay: microbe, parasite or virus in culture; type: cell-based, Plasmodium falciparum; settings: for IC50: Plasmodium falciparum, W2, read-out: In Vitro Antimalarial Activity (P. falciparum, IC50, nM) W2; for RI W2/D6 (resistance index): IC50 W2 / IC50 D6
[4] = test system: HepG2 (hepatocellular carcinoma) cell line; assay: Compound toxicity in HepG2 cell line; type: cell-based, human; settings: for IC50: Homo sapiens, HepG2, hepatocellular carcinoma cells; for SI HepG2/D6 (selectivity index): IC50 HepG2 / IC50 D6
Protocol: To investigate possible toxicity issues, the synthesized compounds were evaluated in vitro against a human hepatoma cell line (HepG2).
Synthesized aminoquinolines were screened in vitro against P. falciparum strains: CQ and MFQ susceptible strain D6 (clone of Sierra Leone/UNC isolate), CQ resistant but MFQ susceptible strain W2 (clone of Indochina isolate), and CQ and MFQ resistant strain TM91C235 (clone of South East Asian isolate) using the Malaria SYBR Green Fluorescence Assay. Full method details are given in Supplementary Materials I. Assessment of compound toxicity in a HepG2 (hepatocellular carcinoma) cell line followed the protocol described in Ref. [40].

healthy mice = assay: Host toxicity study in healthy mice; type: in vivo; settings: 160 mg/kg/day × 3 days; for Mice survived in host toxicity study: groups of 5 healthy mice; for Host toxicity (toxic / non-toxic): healthy mice, orally
Protocol: In a separate host toxicity study, groups of five healthy mice were administered 160 mg/kg/day × 3 days of the investigational compounds and individually monitored for behavior and appearance two times a day for 31 days. No toxicity was defined as survival past day 31 with no overt clinical manifestations of toxicity (changes in behavior and appearance).

CCN(CC)CCCC(C)Nc1ccnc2cc(Cl)ccc12 (centres unmarked) [CQ, chloroquine, reference compound]
IC50 [1]: 206 nM | Parasitemia D6-D31 (P. berghei (ANKA); 160 mg/kg/day p.o. days 3–5, days 6–31): 5 mice negative | Mean Survival Time (MST, Days) (P. berghei (ANKA)): >31 days | Mice Alive on Day 31 (P. berghei (ANKA)): 5/5 | IC50 [2]: 15 nM | IC50 [3]: 595 nM

c1ccc2sc(CNCCCNc3ccnc4ccccc34)cc2c1 [Compound 8]
IC50 [1]: 107 nM | IC50 [4]: 8870 nM | SI HepG2/D6 (selectivity index) [4]: 440 | IC50 [2]: 20 nM | RI W2/D6 (resistance index) [3]: 5.2 | IC50 [3]: 104 nM

c1ccc2sc(CNCCCCNc3ccnc4ccccc34)cc2c1 [Compound 9]
IC50 [1]: 205 nM | IC50 [4]: 4870 nM | SI HepG2/D6 (selectivity index) [4]: 339 | IC50 [2]: 14 nM | RI W2/D6 (resistance index) [3]: 13.6 | IC50 [3]: 191 nM

Fc1ccc2c(CNCCCNc3ccnc4ccccc34)csc2c1 [Compound 12]
IC50 [1]: 191 nM | IC50 [4]: 4480 nM | SI HepG2/D6 (selectivity index) [4]: 211 | IC50 [2]: 21 nM | RI W2/D6 (resistance index) [3]: 8.8 | IC50 [3]: 185 nM

Fc1ccc2scc(CNCCCCNc3ccnc4ccccc34)c2c1 [Compound 13]
IC50 [1]: 177 nM | IC50 [4]: 2730 nM | SI HepG2/D6 (selectivity index) [4]: 172 | IC50 [2]: 16 nM | RI W2/D6 (resistance index) [3]: 12.6 | IC50 [3]: 201 nM

Fc1ccc2scc(-c3ccc(CNCCCNc4ccnc5ccccc45)cc3)c2c1 [Compound 23]
IC50 [1]: 111 nM | IC50 [4]: 3820 nM | SI HepG2/D6 (selectivity index) [4]: 136 | IC50 [2]: 28 nM | RI W2/D6 (resistance index) [3]: 5.1 | IC50 [3]: 144 nM

Fc1ccc2scc(-c3ccc(CNCCCCCCNc4ccnc5ccccc45)cc3)c2c1 [Compound 24]
IC50 [1]: 242 nM | IC50 [4]: 2230 nM | SI HepG2/D6 (selectivity index) [4]: 37 | IC50 [2]: 60 nM | RI W2/D6 (resistance index) [3]: 4.6 | IC50 [3]: 277 nM

CC(CCCNCc1ccc(-c2csc3ccc(F)cc23)cc1)Nc1ccnc2cc(Cl)ccc12 (centres unmarked) [Compound 25]
IC50 [1]: 121 nM | Mice survived in host toxicity study (healthy mice): 5 | Host toxicity (toxic / non-toxic) (healthy mice): non-toxic | IC50 [4]: 2090 nM | SI HepG2/D6 (selectivity index) [4]: 29 | Parasitemia D21 (P. berghei (ANKA); 160 mg/kg/day p.o. days 3–5, day 21): 2.7% | Parasitemia D24 (P. berghei (ANKA); 160 mg/kg/day p.o. days 3–5): 52% | Parasitemia D28 (P. berghei (ANKA); 160 mg/kg/day p.o. days 3–5, day 28): 72% | Parasitemia D31 (P. berghei (ANKA); 160 mg/kg/day p.o. days 3–5, day 31 (end of study)): 79% | Mean Survival Time (MST, Days) (P. berghei (ANKA)): 20.8 days | Mice Alive on Day 31 (P. berghei (ANKA); 160 mg/kg/day): only one surviving 31 days but with parasitemia and 1/4 | Mice Dead/Day Died (P. berghei (ANKA); 160 mg/kg/day): 2/17 and 1/18 | IC50 [2]: 71 nM | RI W2/D6 (resistance index) [3]: 0.2 | IC50 [3]: 12 nM

CC(CCCNCc1ccc(-c2csc3ccc(F)cc23)cc1)Nc1ccnc2ccccc12 (centres unmarked) [Compound 26]
IC50 [1]: 45 nM | IC50 [4]: 2340 nM | SI HepG2/D6 (selectivity index) [4]: 65 | IC50 [2]: 36 nM | RI W2/D6 (resistance index) [3]: 1.5 | IC50 [3]: 55 nM

CC(CCCN(C)Cc1ccc(-c2csc3ccc(F)cc23)cc1)Nc1ccnc2ccccc12 (centres unmarked) [Compound 27]
IC50 [1]: 126 nM | IC50 [4]: 5000 nM | SI HepG2/D6 (selectivity index) [4]: 173 | IC50 [2]: 29 nM | RI W2/D6 (resistance index) [3]: 4.3 | IC50 [3]: 126 nM

N#Cc1ccc2scc(-c3ccc(CNCCCCNc4ccnc5ccccc45)cc3)c2c1 [Compound 28]
IC50 [1]: 129 nM | IC50 [4]: 2580 nM | SI HepG2/D6 (selectivity index) [4]: 401 | IC50 [2]: 6 nM | RI W2/D6 (resistance index) [3]: 31.3 | IC50 [3]: 188 nM

CC(CCCNCc1ccc(-c2csc3ccc(C#N)cc23)cc1)Nc1ccnc2ccccc12 (centres unmarked) [Compound 29]
IC50 [1]: 46 nM | IC50 [4]: 2410 nM | SI HepG2/D6 (selectivity index) [4]: 192 | IC50 [2]: 13 nM | RI W2/D6 (resistance index) [3]: 3.4 | IC50 [3]: 44 nM

N#Cc1ccc2scc(-c3ccc(CNCCCCCCNc4ccnc5ccccc45)cc3)c2c1 [Compound 30]
IC50 [1]: 51 nM | IC50 [4]: 1980 nM | SI HepG2/D6 (selectivity index) [4]: 162 | IC50 [2]: 12 nM | RI W2/D6 (resistance index) [3]: 6.8 | IC50 [3]: 81 nM

N#Cc1ccc2c(-c3ccc(CNCCCCNc4ccnc5ccccc45)cc3)csc2c1 [Compound 31]
IC50 [1]: 93 nM | IC50 [4]: 3580 nM | SI HepG2/D6 (selectivity index) [4]: 276 | IC50 [2]: 13 nM | RI W2/D6 (resistance index) [3]: 15.2 | IC50 [3]: 197 nM

N#Cc1ccc2c(-c3ccc(CNCCCCCCNc4ccnc5ccccc45)cc3)csc2c1 [Compound 32]
IC50 [1]: 29 nM | IC50 [4]: 2050 nM | SI HepG2/D6 (selectivity index) [4]: 37 | IC50 [2]: 55 nM | RI W2/D6 (resistance index) [3]: 1.8 | IC50 [3]: 102 nM

N#Cc1ccc(-c2ccc(-c3ccc(CNCCNc4ccnc5cc(Cl)ccc45)cc3)s2)cc1 [Compound 37]
IC50 [1]: 60 nM | IC50 [4]: > 30600 nM | IC50 [2]: 49 nM | RI W2/D6 (resistance index) [3]: 0.5 | IC50 [3]: 26 nM

N#Cc1ccc(-c2ccc(-c3ccc(CNCCCNc4ccnc5cc(Cl)ccc45)cc3)s2)cc1 [Compound 38]
IC50 [1]: 43 nM | IC50 [4]: 2560 nM | SI HepG2/D6 (selectivity index) [4]: 30 | IC50 [2]: 84 nM | RI W2/D6 (resistance index) [3]: 0.2 | IC50 [3]: 20 nM

N#Cc1ccc(-c2ccc(-c3ccc(CNCCCCNc4ccnc5cc(Cl)ccc45)cc3)s2)cc1 [Compound 39]
IC50 [1]: 52 nM | IC50 [4]: > 5790 nM | IC50 [2]: 59 nM | RI W2/D6 (resistance index) [3]: 0.8 | IC50 [3]: 46 nM

N#Cc1ccc(-c2ccc(-c3ccc(CNCCCCCNc4ccnc5cc(Cl)ccc45)cc3)s2)cc1 [Compound 40]
IC50 [1]: 54 nM | IC50 [4]: 6700 nM | SI HepG2/D6 (selectivity index) [4]: 84 | IC50 [2]: 80 nM | RI W2/D6 (resistance index) [3]: 0.5 | IC50 [3]: 41 nM

N#Cc1ccc(-c2ccc(-c3ccc(CNCCCCCCNc4ccnc5cc(Cl)ccc45)cc3)s2)cc1 [Compound 41]
IC50 [1]: 20 nM | IC50 [4]: 2420 nM | SI HepG2/D6 (selectivity index) [4]: 89 | IC50 [2]: 27 nM | RI W2/D6 (resistance index) [3]: 0.5 | IC50 [3]: 13 nM

N#Cc1ccc(-c2ccc(-c3ccc(CNCCCCCCCCNc4ccnc5cc(Cl)ccc45)cc3)s2)cc1 [Compound 42]
IC50 [1]: 30 nM | Mice survived in host toxicity study (healthy mice): 5 | Host toxicity (toxic / non-toxic) (healthy mice): non-toxic | IC50 [4]: 2090 nM | SI HepG2/D6 (selectivity index) [4]: 38 | Parasitemia D24 (P. berghei (ANKA); 160 mg/kg/day p.o. days 3–5): 75% | Mean Survival Time (MST, Days) (P. berghei (ANKA)): 18.6 days | Mice Alive on Day 31 (P. berghei (ANKA)): 0/5 | Mice Dead/Day Died (P. berghei (ANKA); 160 mg/kg/day): 1/9 and 1/13 and 1/20 and 1/23 and 1/28 | IC50 [2]: 55 nM | RI W2/D6 (resistance index) [3]: 0.2 | IC50 [3]: 12 nM

N#Cc1ccc(-c2ccc(-c3ccc(CNCCCCNc4ccnc5ccccc45)cc3)s2)cc1 [Compound 43]
IC50 [1]: 34 nM | IC50 [4]: 8150 nM | SI HepG2/D6 (selectivity index) [4]: 2038 | IC50 [2]: 4 nM | RI W2/D6 (resistance index) [3]: 26 | IC50 [3]: 106 nM

N#Cc1ccc(-c2ccc(-c3ccc(CNCCCCCCNc4ccnc5ccccc45)cc3)s2)cc1 [Compound 44]
IC50 [1]: 54 nM | IC50 [4]: 4080 nM | SI HepG2/D6 (selectivity index) [4]: 40 | IC50 [2]: 101 nM | RI W2/D6 (resistance index) [3]: 0.7 | IC50 [3]: 74 nM

C#Cc1ccc(-c2ccc(-c3ccc(CNCCCCCCCCNc4ccnc5ccccc45)cc3)s2)cc1 [Compound 52]
IC50 [1]: 274 nM | IC50 [4]: 9230 nM | SI HepG2/D6 (selectivity index) [4]: 52 | IC50 [2]: 177 nM | RI W2/D6 (resistance index) [3]: 1.5 | IC50 [3]: 259 nM

OC(c1cc(C(F)(F)F)nc2c(C(F)(F)F)cccc12)C1CCCCN1 (centres unmarked) [MFQ, mefloquine, reference compound]
IC50 [1]: 55 nM | IC50 [2]: 23 nM | RI W2/D6 (resistance index) [3]: 0.3 | IC50 [3]: 7 nM

Source: PMC6155332, “Antimalarials with Benzothiophene Moieties as Aminoquinoline Partners” (Molecules : A Journal of Synthetic Chemistry and Natural …, 2017)
